Among the data in US9290511B2, “Thieno-pyrimidines, useful as potassium channel inhibitors” (XENTION LIMITED, priority 2011, dated 2016) are IC50 values, retold here.

Each structure is given as a SMILES string. pIC50: −log10 of the molar value.

The test addresses T1, Kir3.1/3.4 (Rattus norvegicus, UniProt P48548+P63251).
T1 construct: expressed in transfected cells
T1 sequence (P63251 1-501): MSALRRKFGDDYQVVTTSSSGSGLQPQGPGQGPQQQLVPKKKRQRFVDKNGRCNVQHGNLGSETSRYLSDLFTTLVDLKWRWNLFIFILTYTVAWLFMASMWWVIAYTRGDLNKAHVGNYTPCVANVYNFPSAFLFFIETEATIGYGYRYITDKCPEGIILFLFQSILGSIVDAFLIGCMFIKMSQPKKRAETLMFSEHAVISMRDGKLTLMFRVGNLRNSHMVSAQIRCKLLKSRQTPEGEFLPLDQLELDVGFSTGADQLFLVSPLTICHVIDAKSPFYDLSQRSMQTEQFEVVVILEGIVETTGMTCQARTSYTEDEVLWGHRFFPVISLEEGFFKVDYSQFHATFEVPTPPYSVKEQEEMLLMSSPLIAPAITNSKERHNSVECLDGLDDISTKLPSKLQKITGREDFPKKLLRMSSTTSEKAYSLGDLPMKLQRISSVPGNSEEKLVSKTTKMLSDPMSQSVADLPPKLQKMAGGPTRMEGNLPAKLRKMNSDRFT
T1 sequence (P48548 1-419): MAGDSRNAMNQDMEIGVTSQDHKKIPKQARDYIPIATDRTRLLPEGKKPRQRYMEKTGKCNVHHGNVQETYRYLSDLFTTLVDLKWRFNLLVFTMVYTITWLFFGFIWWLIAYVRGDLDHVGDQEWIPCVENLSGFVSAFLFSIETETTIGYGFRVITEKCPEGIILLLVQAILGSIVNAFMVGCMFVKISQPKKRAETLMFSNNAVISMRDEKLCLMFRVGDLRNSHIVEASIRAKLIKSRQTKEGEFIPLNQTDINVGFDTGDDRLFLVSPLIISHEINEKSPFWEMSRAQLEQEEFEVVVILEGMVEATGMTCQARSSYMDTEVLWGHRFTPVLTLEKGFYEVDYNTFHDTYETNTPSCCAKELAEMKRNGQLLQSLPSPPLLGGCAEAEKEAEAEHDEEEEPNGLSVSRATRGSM
Put plainly: Kir3.1/3.4 Q-patch Method (automated patch clamp, Sophion Q-patch). In kind it is cell-based. The following applies: HEK293 cells stably-expressing Kir3.1/3.4; current at -120 mV; QPatch-16 or QPatch-48. On the procedure:
For automated patch-clamp studies using the Sophion Q-patch, accumulative concentration-responses experiments were conducted to determine compound activity against the ion channel target. Voltage-clamp experiments were performed using HEK293 cells stably-expressing Kir3.1/3.4 using either a QPatch-16 or QPatch-48 (Sophion Bioscience A/S). A voltage waveform (VHold−20 mV, step to 60 mV for 100 ms, ramp to −120 mV over 500 ms, hold at −120 mV for 100 ms before returning to VHold) was repeatedly applied to the cells under voltage-clamp at a frequency of 0.1 Hz to elicit Kir3.1/3.4 currents. Mean current at −120 mV was measured in the absence (Icontrol) and presence of drug (IDrug). Assessment of passive leak was performed by removal of external potassium (IZero). Leak current was subtracted from control and drug recordings. Current inhibition (%) was calculated as {1−[(IDrug−IZero)/(IControl−IZero)]}*100. Data were fitted with a sigmoidal function to yield an IC50 and Hill coefficient. Composition of external experimental buffer was (in mM): 40 NaCl, 100 KCl, 5 CaCl2, 1 MgCl2, 10 HEPES pH 7.4. Composition of internal solution was (in mM). 40 K-gluconate, 60 KF, 20 NaCl, 5 Mg-ATP, 0.9 GTPgS, 20 EGTA, pH 7.2. Compounds were formulated in DMSO and diluted in buffer to give a final drug concentration of between […] and a final DMSO concentration of 0.1-0.3%.
The term pIC50 denotes the IC50 on a negative log10 scale, so that one unit is a factor of ten. A low value points to a large IC50. Take `COc1ccccc1-c1csc2nc(N3C4CCC3CC(OC)C4)nc(N3C4CCC3COC4)c12` (stereo not drawn) [Example 397, 8-[2-(3-methoxy-8-azabicyclo[3.2.1]octan-8-yl)-5-(2-methoxyphenyl)thieno[2,3-d]pyrimidin-4-yl]-3-oxa-8-azabicyclo[3.2.1]octane]: the pIC50 is more than 6.30.

The compound `COc1ccccc1-c1csc2nc(N3CCNC(C(N)=O)C3)nc(N3C4CCC3CC(OC)C4)c12` (stereo not drawn) [Example 394, 4-[4-(3-methoxy-8-azabicyclo[3.2.1]octan-8-yl)-5-(2-methoxyphenyl)thieno[2,3-d]pyrimidin-2-yl]piperazine-2-carboxamide] gave a pIC50 of more than 6.30.

On to `COc1ccccc1-c1csc2nc(N3C4CCC3COC4)nc(N3C4CCC3COC4)c12` [Example 402, 8-[5-(2-methoxyphenyl)-2-(3-oxa-8-azabicyclo[3.2.1]octan-8-yl)thieno[2,3-d]pyrimidin-4-yl]-3-oxa-8-azabicyclo[3.2.1]octane], for which the pIC50 is 5.52 to 6.30.

`COc1ncccc1-c1csc2ncnc(N3C4CCC3CC(CNC3CCC3)C4)c12` (stereo not drawn) [Example 427, N-[[8-[5-(2-methoxy-3-pyridyl)thieno[2,3-d]pyrimidin-4-yl]-8-azabicyclo[3.2.1]octan-3-yl]methyl]cyclobutanamine] gave a pIC50 of more than 6.30.

As for `COC1CC2CCC(C1)N2c1nc(N2CCCC(C(N)=O)C2)nc2scc(-c3ccccc3Cl)c12` (stereo not drawn) [Example 373, 1-[5-(2-chlorophenyl)-4-(3-methoxy-8-azabicyclo[3.2.1]octan-8-yl)thieno[2,3-d]pyrimidin-2-yl]piperidine-3-carboxamide], the pIC50 is more than 6.30.

The compound `COc1ccccc1-c1csc2nc(N3CCCC(C(N)=O)C3)nc(N3C4CCC3COC4)c12` (stereo not drawn) [Example 399, 1-[5-(2-methoxyphenyl)-4-(3-oxa-8-azabicyclo[3.2.1]octan-8-yl)thieno[2,3-d]pyrimidin-2-yl]piperidine-3-carboxamide] gave a negative-log IC50 (pIC50) of 5.52 to 6.30.

Turning to `NC(=O)C1CN(c2nc(N3C4CCC3COC4)c3c(-c4ccccc4Cl)csc3n2)CCO1` (stereo not drawn) [Example 420, 4-[5-(2-chlorophenyl)-4-(3-oxa-8-azabicyclo[3.2.1]octan-8-yl)thieno[2,3-d]pyrimidin-2-yl]morpholine-2-carboxamide], the pIC50 is more than 6.30.

In turn, `COc1ccccc1-c1csc2nc(C#N)nc(N3C4CCC3CC(OC)C4)c12` (stereo not drawn) [Example 405, 4-(3-methoxy-8-azabicyclo[3.2.1]octan-8-yl)-5-(2-methoxyphenyl)thieno[2,3-d]pyrimidine-2-carbonitrile] had a pIC50 of 5.52 to 6.30.

`COc1ccccc1-c1csc2nc(N3C4CCC3CC(O)C4)nc(N3CCC(C(N)=O)C3)c12` (stereo not drawn) [Example 414, 1-[2-(3-hydroxy-8-azabicyclo[3.2.1]octan-8-yl)-5-(2-methoxyphenyl)thieno[2,3-d]pyrimidin-4-yl]pyrrolidine-3-carboxamide] gave a pIC50 of 5.52 to 6.30.

Turning to `COC1CC2CCC(C1)N2c1nc(N2C3CCC2CC(O)C3)nc2scc(-c3ccccc3Cl)c12` (stereo not drawn) [Example 375, 8-[5-(2-chlorophenyl)-4-(3-methoxy-8-azabicyclo[3.2.1]octan-8-yl)thieno[2,3-d]pyrimidin-2-yl]-8-azabicyclo[3.2.1]octan-3-ol], the pIC50 is 5.52 to 6.30.

As to `NC(=O)C1CCCN(c2nc(N3C4CCC3CC(CO)C4)nc3scc(-c4ccccc4Cl)c23)C1` (stereo not drawn) [Example 393, 1-[5-(2-chlorophenyl)-2-[3-(hydroxymethyl)-8-azabicyclo[3.2.1]octan-8-yl]thieno[2,3-d]pyrimidin-4-yl]piperidine-3-carboxamide], the pIC50 was more than 6.30.

In turn, `COc1ccccc1-c1csc2nc(N3CCOC(C(N)=O)C3)nc(N3C4CCC3CC(OC)C4)c12` (stereo not drawn) [Example 409, 4-[4-(3-methoxy-8-azabicyclo[3.2.1]octan-8-yl)-5-(2-methoxyphenyl)thieno[2,3-d]pyrimidin-2-yl]morpholine-2-carboxamide] showed a pIC50 of 5.52 to 6.30.

Take `COc1ccccc1-c1csc2nc(N3CCNC(=O)C3)nc(N3C4CCC3CC(OC)C4)c12` (stereo not drawn) [Example 380, 4-[4-(3-methoxy-8-azabicyclo[3.2.1]octan-8-yl)-5-(2-methoxyphenyl)thieno[2,3-d]pyrimidin-2-yl]piperazin-2-one]: the pIC50 is more than 6.30.

For the compound `COc1ccccc1-c1csc2nc(N3C4CCC3COC4)nc(N3C4CCC3CC(OC)C4)c12` (stereo not drawn) [Example 379, 8-[4-(3-methoxy-8-azabicyclo[3.2.1]octan-8-yl)-5-(2-methoxyphenyl)thieno[2,3-d]pyrimidin-2-yl]-3-oxa-8-azabicyclo[3.2.1]octane], the pIC50 was 5.52 to 6.30.

The compound `COc1ccccc1-c1csc2nc(N3CCNC(C(N)=O)C3)nc(N3C4CCC3COC4)c12` (stereo not drawn) [Example 398, 4-[5-(2-methoxyphenyl)-4-(3-oxa-8-azabicyclo[3.2.1]octan-8-yl)thieno[2,3-d]pyrimidin-2-yl]piperazine-2-carboxamide] had a pIC50 of more than 6.30.

Take `COc1ccccc1-c1csc2nc(N3C4CCC3CC(CO)C4)nc(N3C4CCC3CC(OC)C4)c12` (stereo not drawn) [Example 371, [8-[4-(3-methoxy-8-azabicyclo[3.2.1]octan-8-yl)-5-(2-methoxyphenyl)thieno[2,3-d]pyrimidin-2-yl]-8-azabicyclo[3.2.1]octan-3-yl]methanol]: the pIC50 was 5.52 to 6.30.

On to `COc1ccccc1-c1csc2nc(N3CCOC(C(N)=O)C3)nc(N3C4CCC3COC4)c12` (stereo not drawn) [Example 418, 4-[5-(2-methoxyphenyl)-4-(3-oxa-8-azabicyclo[3.2.1]octan-8-yl)thieno[2,3-d]pyrimidin-2-yl]morpholine-2-carboxamide], for which the negative-log IC50 (pIC50) is 5.52 to 6.30.

The compound `Clc1ccccc1-c1csc2nc(N3C4CCC3COC4)nc(N3C4CCC3COC4)c12` [Example 423, 8-[5-(2-chlorophenyl)-2-(3-oxa-8-azabicyclo[3.2.1]octan-8-yl)thieno[2,3-d]pyrimidin-4-yl]-3-oxa-8-azabicyclo[3.2.1]octane] had a pIC50 of 5.52 to 6.30.

The compound `Clc1ccccc1-c1csc2nc(N3CCOCC3)nc(N3C4CCC3COC4)c12` [Example 425, 8-[5-(2-chlorophenyl)-2-morpholino-thieno[2,3-d]pyrimidin-4-yl]-3-oxa-8-azabicyclo[3.2.1]octane] showed a pIC50 of more than 6.30.

For `COc1ccccc1-c1csc2nc(N3C4CCC3CC(O)C4)nc(N3C4CCC3CC(OC)C4)c12` (stereo not drawn) [Example 377, 8-[4-(3-methoxy-8-azabicyclo[3.2.1]octan-8-yl)-5-(2-methoxyphenyl)thieno[2,3-d]pyrimidin-2-yl]-8-azabicyclo[3.2.1]octan-3-ol], the pIC50 is 5.52 to 6.30.

`COc1ccccc1-c1csc2nc(N3C4CCC3CC(OC)C4)nc(N3C4CCC3CC(OC)C4)c12` (stereo not drawn) [Example 407, 2,4-bis(3-methoxy-8-azabicyclo[3.2.1]octan-8-yl)-5-(2-methoxyphenyl)thieno[2,3-d]pyrimidine] showed a pIC50 of 5.52 to 6.30.

Regarding `COc1ccccc1-c1csc2nc(N3C4CCC3CC(O)C4)nc(N3C4CCC3COC4)c12` (stereo not drawn) [Example 400, 8-[5-(2-methoxyphenyl)-4-(3-oxa-8-azabicyclo[3.2.1]octan-8-yl)thieno[2,3-d]pyrimidin-2-yl]-8-azabicyclo[3.2.1]octan-3-ol], the pIC50 was 5.52 to 6.30.

In turn, `COc1ccccc1-c1csc2nc(N3CCC(C(N)=O)C3)nc(N3C4CCC3CC(OC)C4)c12` (stereo not drawn) [Example 396, 1-[4-(3-methoxy-8-azabicyclo[3.2.1]octan-8-yl)-5-(2-methoxyphenyl)thieno[2,3-d]pyrimidin-2-yl]pyrrolidine-3-carboxamide] showed a pIC50 of more than 6.30.

As to `COC1CC2CCC(C1)N2c1nc(N2CCNC(=O)C2)nc2scc(-c3ccccc3Cl)c12` (stereo not drawn) [Example 391, 4-[5-(2-chlorophenyl)-4-(3-methoxy-8-azabicyclo[3.2.1]octan-8-yl)thieno[2,3-d]pyrimidin-2-yl]piperazin-2-one], the negative logarithm of the IC50 (pIC50) is 5.52 to 6.30.
